# Measurements taken from PubChem BioAssay AID330 (DTP/NCI, 2004).
# Values joined by “and” are separate entries in the source; they are usually repeats but may differ in a detail not shown here. Identical values can stand only once. Toxic doses and inconclusive results are not listed.
# Tested on: P388 leukemia ip, CD2F1 mice, survival T/C
# Assay: NCI In Vivo Anticancer Drug Screen. Data for tumor model P388 Leukemia (intraperitoneal) in CD2F1 (CDF1) mice
# Settings: endpoint: median survival time, higher = longer survival
# In short: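 Mice carrying the transplanted tumor received test compound or vehicle. Survival was recorded in each group, and the value is the treated-group measurement divided by that of the vehicle-treated control group.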
# [1] = dose: 25.0 mg/kg/injection, schedule: Q01DX009 (ip), vehicle: Klucel (hydroxypropylcellulose) (HPC)
# [2] = dose: 50.0 mg/kg/injection, schedule: Q01DX005 (ip), vehicle: Klucel (hydroxypropylcellulose) (HPC)
# [3] = dose: 100.0 mg/kg/injection, schedule: Q01DX005 (ip), vehicle: Klucel (hydroxypropylcellulose) (HPC)
# [4] = dose: 12.5 mg/kg/injection, schedule: Q01DX005 (ip), vehicle: Klucel (hydroxypropylcellulose) (HPC)
# [5] = dose: 25.0 mg/kg/injection, schedule: Q01DX005 (ip), vehicle: Klucel (hydroxypropylcellulose) (HPC)
# [6] = dose: 100.0 mg/kg/injection, schedule: Q04DX002 (ip), vehicle: Klucel (hydroxypropylcellulose) (HPC)
# [7] = dose: 200.0 mg/kg/injection, schedule: Q04DX002 (ip), vehicle: Klucel (hydroxypropylcellulose) (HPC)
# [8] = dose: 6.25 mg/kg/injection, schedule: Q01DX005 (ip), vehicle: Klucel (hydroxypropylcellulose) (HPC)
# [9] = dose: 25.0 mg/kg/injection, schedule: Q04DX003 (ip), vehicle: saline with Tween-80
# [10] = dose: 50.0 mg/kg/injection, schedule: Q04DX003 (ip), vehicle: saline with Tween-80
# [11] = dose: 100.0 mg/kg/injection, schedule: Q04DX003 (ip), vehicle: saline with Tween-80
# [12] = dose: 50.0 mg/kg/injection, schedule: Q01DX009 (ip), vehicle: Klucel (hydroxypropylcellulose) (HPC)
# [13] = dose: 100.0 mg/kg/injection, schedule: Q01DX009 (ip), vehicle: Klucel (hydroxypropylcellulose) (HPC)
# [14] = dose: 200.0 mg/kg/injection, schedule: Q01DX009 (ip), vehicle: Klucel (hydroxypropylcellulose) (HPC)
# [15] = dose: 50.0 mg/kg/injection, schedule: Q01DX009 (ip), vehicle: distilled water + Tween-80
# [16] = dose: 200.0 mg/kg/injection, schedule: Q04DX003 (ip), vehicle: saline with Tween-80
smiles,measurement,setting,value
[I][Hg][CH]1CCC2CCCC1O2 (stereo not drawn),T/C,"dose: 12.5 mg/kg/injection, schedule: Q01DX009 (ip), vehicle: Klucel (hydroxypropylcellulose) (HPC)",105 % of control
same,T/C,[1],102 % of control
CCCCN(CCCC)CCOc1c[nH]c(=O)[nH]c1=O,T/C,[2],103 % of control
same,T/C,[3],106 % of control
CC1(C)CC2([Si](C)(C)C)C(=O)NC(=O)NC12 (stereo not drawn),T/C,[4],105 % of control
same,T/C,[5],99 % of control
same,T/C,[2],99 % of control
same,T/C,[3],97 % of control
C=CCc1cc(OC)c(OCC=O)c(OC)c1,T/C,[6],99 % of control
same,T/C,[7],96 % of control
CC(C)(C)c1cc(C#C[Si](C)(C)C)cc(C(C)(C)C)c1,T/C,[8],98 % of control
same,T/C,[4],101 % of control
same,T/C,[5],92 % of control
CC1CC(C)(C)N=C(C(C)C)O1 (stereo not drawn),T/C,[9],109 % of control
same,T/C,[10],100 % of control
same,T/C,[11],100 % of control
FC(F)(F)c1cccc(C(OCC2CO2)(C(F)(F)F)C(F)(F)F)c1 (stereo not drawn),T/C,[12],99 % of control
same,T/C,[13],96 % of control
same,T/C,[14],102 % of control
CNC(=O)OCc1c(COC(=O)NC)c(-c2ccc(SC)cc2)n(C)c1C,T/C,"dose: 3.13 mg/kg/injection, schedule: Q01DX009 (ip), vehicle: distilled water + Tween-80",187 % of control
same,T/C,"dose: 12.5 mg/kg/injection, schedule: Q01DX009 (ip), vehicle: distilled water + Tween-80",152 % of control
same,T/C,[15],150 % of control
S=[As]1(c2cccc3ccccc23)c2ccccc2-c2ccccc21,T/C,"dose: 30.0 mg/kg/injection, schedule: Q01DX009 (ip), vehicle: saline with Tween-80",106 % of control
same,T/C,"dose: 60.0 mg/kg/injection, schedule: Q01DX009 (ip), vehicle: saline with Tween-80",100 % of control
same,T/C,"dose: 120.0 mg/kg/injection, schedule: Q01DX009 (ip), vehicle: saline with Tween-80",110 % of control
Cc1ccc2ccccc2c1N(CC(=O)O)S(=O)(=O)c1ccccc1,T/C,"dose: 100.0 mg/kg/injection, schedule: Q01DX009 (ip), vehicle: saline with Tween-80",100 % of control
same,T/C,[11],100 % of control
same,T/C,"dose: 200.0 mg/kg/injection, schedule: Q01DX009 (ip), vehicle: saline with Tween-80",110 % of control
same,T/C,[16],100 % of control
same,T/C,"dose: 400.0 mg/kg/injection, schedule: Q01DX009 (ip), vehicle: saline with Tween-80",120 % of control
same,T/C,"dose: 400.0 mg/kg/injection, schedule: Q04DX003 (ip), vehicle: saline with Tween-80",109 % of control
Brc1cc(Br)c(I)c(Br)c1,T/C,"dose: 100.0 mg/kg/injection, schedule: Q04DX003 (ip), vehicle: other",95 % of control
same,T/C,"dose: 200.0 mg/kg/injection, schedule: Q04DX003 (ip), vehicle: other",100 % of control
same,T/C,"dose: 400.0 mg/kg/injection, schedule: Q04DX003 (ip), vehicle: other",100 % of control
CCC/C(C)=C(/C#N)CC,T/C,[1],101 % of control
same,T/C,[12],101 % of control
same,T/C,[13],101 % of control
Cc1cc(C)c(S(=O)(=O)N/N=C/C(=O)O)c(C)c1,T/C,"dose: 12.5 mg/kg/injection, schedule: Q01DX009 (ip), vehicle: other",112 % of control and 117 % of control
same,T/C,"dose: 25.0 mg/kg/injection, schedule: Q01DX009 (ip), vehicle: other",122 % of control
same,T/C,"dose: 100.0 mg/kg/injection, schedule: Q01DX009 (ip), vehicle: other",154 % of control
OCCCCc1ccccc1,T/C,"dose: 100.0 mg/kg/injection, schedule: Q01DX001 (ip), vehicle: saline with Tween-80",104 % of control
same,T/C,"dose: 200.0 mg/kg/injection, schedule: Q01DX001 (ip), vehicle: saline with Tween-80",100 % of control
same,T/C,"dose: 400.0 mg/kg/injection, schedule: Q01DX001 (ip), vehicle: saline with Tween-80",100 % of control
O=C(NC(Cc1ccccc1)C(=O)O)c1cccnc1 (stereo not drawn),T/C,"dose: 25.0 mg/kg/injection, schedule: Q04DX002 (ip), vehicle: Klucel (hydroxypropylcellulose) (HPC)",100 % of control
same,T/C,"dose: 52.0 mg/kg/injection, schedule: Q04DX002 (ip), vehicle: Klucel (hydroxypropylcellulose) (HPC)",102 % of control
same,T/C,[6],96 % of control
same,T/C,[7],100 % of control
CC(=O)Oc1c[nH]c(=O)[nH]c1=O,T/C,"dose: 25.0 mg/kg/injection, schedule: Q01DX009 (ip), vehicle: distilled water + Tween-80",103 % of control and 97 % of control
same,T/C,[15],100 % of control and 97 % of control
same,T/C,"dose: 100.0 mg/kg/injection, schedule: Q01DX009 (ip), vehicle: distilled water + Tween-80",102 % of control and 103 % of control and 112 % of control
same,T/C,"dose: 200.0 mg/kg/injection, schedule: Q01DX009 (ip), vehicle: distilled water + Tween-80",109 % of control and 114 % of control and 119 % of control
same,T/C,"dose: 400.0 mg/kg/injection, schedule: Q01DX009 (ip), vehicle: distilled water + Tween-80",103 % of control and 123 % of control
NC(N)=N/C(N)=N\c1nn[nH]n1,T/C,"dose: 100.0 mg/kg/injection, schedule: Q01DX001 (ip), vehicle: saline",95 % of control
same,T/C,"dose: 200.0 mg/kg/injection, schedule: Q01DX001 (ip), vehicle: saline",100 % of control
same,T/C,"dose: 400.0 mg/kg/injection, schedule: Q01DX001 (ip), vehicle: saline",100 % of control
CCOC(=O)/N=[N+](\[O-])c1ccccc1,T/C,"dose: 0.2 mg/kg/injection, schedule: Q01DX009 (ip), vehicle: saline with Tween-80",103 % of control
same,T/C,"dose: 0.39 mg/kg/injection, schedule: Q01DX009 (ip), vehicle: saline with Tween-80",103 % of control
same,T/C,"dose: 0.78 mg/kg/injection, schedule: Q01DX009 (ip), vehicle: saline with Tween-80",106 % of control and 95 % of control
same,T/C,"dose: 1.56 mg/kg/injection, schedule: Q01DX009 (ip), vehicle: saline with Tween-80",109 % of control and 95 % of control
same,T/C,"dose: 3.12 mg/kg/injection, schedule: Q01DX009 (ip), vehicle: saline with Tween-80",103 % of control and 123 % of control
same,T/C,"dose: 3.12 mg/kg/injection, schedule: Q04DX003 (ip), vehicle: saline with Tween-80",112 % of control and 115 % of control
same,T/C,"dose: 6.25 mg/kg/injection, schedule: Q01DX009 (ip), vehicle: saline with Tween-80",107 % of control and 115 % of control
same,T/C,"dose: 6.25 mg/kg/injection, schedule: Q04DX003 (ip), vehicle: saline with Tween-80",99 % of control and 110 % of control
same,T/C,"dose: 12.5 mg/kg/injection, schedule: Q01DX009 (ip), vehicle: saline with Tween-80",115 % of control
same,T/C,"dose: 12.5 mg/kg/injection, schedule: Q04DX003 (ip), vehicle: saline with Tween-80",112 % of control and 117 % of control and 123 % of control
same,T/C,[9],110 % of control
COc1c2occc2c(N=Cc2ccc([N+](=O)[O-])cc2)c2ccc(=O)oc12,T/C,"dose: 0.38 mg/kg/injection, schedule: Q01DX005 (ip), vehicle: saline with Tween-80",99 % of control
same,T/C,"dose: 0.75 mg/kg/injection, schedule: Q01DX005 (ip), vehicle: saline with Tween-80",98 % of control
same,T/C,"dose: 1.5 mg/kg/injection, schedule: Q01DX005 (ip), vehicle: saline with Tween-80",90 % of control
same,T/C,"dose: 6.25 mg/kg/injection, schedule: Q01DX005 (ip), vehicle: saline with Tween-80",87 % of control
same,T/C,"dose: 100.0 mg/kg/injection, schedule: Q01DX005 (ip), vehicle: saline with Tween-80",87 % of control
same,T/C,"dose: 200.0 mg/kg/injection, schedule: Q01DX005 (ip), vehicle: saline with Tween-80",98 % of control
CN(c1ccc(C2=NCCN2)cc1)S(=O)(=O)c1ccc(Oc2ccc(S(=O)(=O)N(C)c3ccc(C4=NCCN4)cc3)cc2)cc1,T/C,[8],100 % of control
same,T/C,[4],100 % of control
same,T/C,[5],109 % of control
Nc1ncnc(N)c1N=O,T/C,[10],100 % of control
same,T/C,[11],104 % of control
same,T/C,[16],100 % of control
Nc1cccc2c1C(=O)c1nc3ccccc3nc1C2=O,T/C,"dose: 100.0 mg/kg/injection, schedule: Q01DX001 (ip), vehicle: Klucel + Tween-80",98 % of control
same,T/C,"dose: 200.0 mg/kg/injection, schedule: Q01DX001 (ip), vehicle: Klucel + Tween-80",94 % of control
same,T/C,"dose: 400.0 mg/kg/injection, schedule: Q01DX001 (ip), vehicle: Klucel + Tween-80",94 % of control
CCOC(=O)/C(=C/Nc1ccc(O)cc1)NC(=O)c1ccccc1,T/C,[12],103 % of control and 104 % of control
same,T/C,[13],94 % of control and 97 % of control
same,T/C,[14],118 % of control and 87 % of control
same,T/C,"dose: 400.0 mg/kg/injection, schedule: Q01DX009 (ip), vehicle: Klucel (hydroxypropylcellulose) (HPC)",89 % of control
Nc1nc(N)c2nc(Sc3ccc(Cl)cc3)c(-c3ccccc3)nc2n1,T/C,[9],95 % of control
same,T/C,[10],91 % of control
same,T/C,[11],93 % of control
